What was measured:
[1] = tested on: MX-1 cells; experiment: Clonogenic survival of MX-1 cells; format: cell-based; details: Homo sapiens, MX1; MX-1, 48 h treatment, colonies after 7-10 days; read-out: IC50 inhibition of clonogenic survival (colony forming ability), MX-1
Procedure: (§1) T47D and MX-1 cells were grown according to the conditions according conditions recommended by American Type Culture Collection. In a well of a 96 well plate, 30,000 cells were seeded and treated with tested compound at the indicated concentrations for 48 hr in a 5% CO2-95% humidity incubator at 37° C. Control wells were treated with the same amount of solvent (DMSO) as the compound samples. After the 48 h treatment, the supernatant was removed to a sterile culture tube and the wells washed with phosphate buffered saline, and the adherent cells trypsinized for 5 min. The trypsinzed cells were added to the culture supernatant, cells were collected (1,200 rpm, 10 min), washed with phosphate buffered saline, and resuspended in fresh media. The cells were counted for trypan blue negative cells, and the cells diluted with fresh media to 1,000 cells/ml. To a well of a 24-well plate, 0.1 ml of the cell suspension was added along with 1 ml of fresh media (cell suspensions were passed through a 22G needle several times just before plating to form single cell suspensions). Plates are incubated in a 5% CO2-95% humidity incubator at 37° C. for 7-10 days. Colonies are counted when the sizes reached greater than 50 cells per colony. […] Colonies are rinsed with water and the colonies counted and the fraction surviving expressed as the percentage of the number of control colonies.

[2] = tested on: P388 (mouse leukemia cell line); experiment: Cell proliferation assay (GI50) in P388 cells; format: cell-based; details: P388, 48 h
Procedure: [Worded in the source for another organism; used here, by the source, with some conditions changed.] (§2) T-47D cells were grown and harvested as in Example 221. An aliquot of 90 μl of cells (2.2×10^4 cells/ml) was added to a well of a 96-well microtiter plate containing 10 μl of a 10% DMSO in RPMI-1640 media solution containing 1 nM to 100 μM of 4-(3-methoxyanilino)-2-(2-pyridinyl)-6-(trifluoromethyl)pyrimidine (0.1 nM to 10 μM final). An aliquot of 90 μl of cells was added to a well of a 96-well microtiter plate containing 10 μl of a 10% DMSO in RPMI-1640 media solution without compound as the control sample for maximal cell proliferation (AMax). The samples were mixed by agitation and then incubated at 37° C. for 48 h in a 5% CO2-95% humidity incubator. After incubation, the samples were removed from the incubator and 20 μl of CellTiter 96 AQueous One Solution Cell Proliferation^TM reagent (Promega) was added. The samples were mixed by agitation and incubated at 37° C. for 2-4 h in a 5% CO2-95% humidity incubator. Using an absorbance plate reader (Model 1420 Wallac Instruments), an initial reading (T=0) was made approximately 1-2 min after addition of the solution, employing absorbance at 490 nm. This determines the possible background absorbance of the test compounds. No absorbance for 4-(3-methoxyanilino)-2-(2-pyridinyl)-6-(trifluoromethyl)pyrimidine was found at 490 nm. After the 2-4 h incubation, the samples were read for absorbance as above (ATest). […]

[3] = tested on: T-47D cells; experiment: Cell cycle arrest and apoptosis by propidium iodide flow cytometry in T-47D cells; format: cell-based, Human; details: 48 h
Procedure: T-47D, a breast cancer cell line, was maintained and harvested as described in Example 221. 5×10^5 Cells were treated with 0.2 μM of 4-(3-methoxyanilino)-2-(2-pyridinyl)-6-(trifluoromethyl)pyrimidine for 48 h at 37° C. As a control, cells were also incubated with equivalent amount of solvent (DMSO). Cells were harvested at 1,200 rpm and then transferred to 12×75 mm polystyrene tubes. Cells were then resuspended in 500 μl of 1% Na Citrate, 0.1% Triton X-100, and 50 μg/ml of propidium iodide and incubated at room temperature for 30 min followed by flow cytometer analysis. All flow cytometry analyses were performed on FACScalibur (Becton Dickinson) using Cell Quest analysis software. The x-axis plotted the amount of fluorescence and the y-axis is plotted the number of cells with the indicated fluorescence. The T-47D control cell population profile is seen in FIG. 1A and the increase in G2/M DNA content cells that is seen when treated with 4-(3-methoxyanilino)-2-(2-pyridinyl)-6-(trifluoromethyl)pyrimidine at 0.2 μM is seen in FIG. 1B. An increase in the sub-diploid DNA content of cells (FIG. 1) is also seen to increase from 2% to 25% with compound treatment. The sub-diploid amount of DNA is indicative of apoptotic cells which have undergone DNA degradation or fragmentation.

[4] = tested on: MES-SA (sarcoma cell line); experiment: Cell proliferation assay (GI50) in MES-SA cells; format: cell-based; details: Homo sapiens, 48 h
Procedure: [Worded in the source for another cell line; this cell line is reported under the same test.] as §2

[5] = tested on: T47D cells; experiment: Clonogenic survival of T47D cells; format: cell-based; details: Homo sapiens, 48 h treatment, colonies after 7-10 days, read-out: IC50 inhibition of clonogenic survival (colony forming ability), T47D
Procedure: as §1

GI50 [2]: > 10000 nM | GI50 [4]: > 10000 nM
SMILES: COc1cccc(Nc2cc(C(F)(F)F)nc(-c3ccccn3)n2)c1 [Compound A, 4-(3-methoxyanilino)-2-(2-pyridinyl)-6-(trifluoromethyl)pyrimidine]
IC50 [1]: ~0.3 µM | sub-diploid DNA content of cells ([3]; 0.2 μM, control 2%): 25% | G1 population ([3]; 200 nM, versus control cells): reduction | G2/M population (G2/M DNA content cells) ([3]; 200 nM, versus control cells): increase | IC50 [5]: ~0.1 µM

From US6716851B2, “Substituted 2-aryl-4-arylaminopyrimidines and analogs as activators or caspases and inducers of apoptosis and the use thereof” (Cytovia, Inc., priority 2000, dated 2004)
